The structures appear in SMILES notation.

These results are taken from BindingDB's records for doi:10.1016/s0960-894x(00)00166-9 (Universidad Complutense, 2000).

In the test the target is 5-hydroxytryptamine receptor 7 (Rattus norvegicus, UniProt P32305). In words: Binding affinity towards 5-hydroxytryptamine 7 receptor.
5-hydroxytryptamine receptor 7, sequence (P32305 whole entry): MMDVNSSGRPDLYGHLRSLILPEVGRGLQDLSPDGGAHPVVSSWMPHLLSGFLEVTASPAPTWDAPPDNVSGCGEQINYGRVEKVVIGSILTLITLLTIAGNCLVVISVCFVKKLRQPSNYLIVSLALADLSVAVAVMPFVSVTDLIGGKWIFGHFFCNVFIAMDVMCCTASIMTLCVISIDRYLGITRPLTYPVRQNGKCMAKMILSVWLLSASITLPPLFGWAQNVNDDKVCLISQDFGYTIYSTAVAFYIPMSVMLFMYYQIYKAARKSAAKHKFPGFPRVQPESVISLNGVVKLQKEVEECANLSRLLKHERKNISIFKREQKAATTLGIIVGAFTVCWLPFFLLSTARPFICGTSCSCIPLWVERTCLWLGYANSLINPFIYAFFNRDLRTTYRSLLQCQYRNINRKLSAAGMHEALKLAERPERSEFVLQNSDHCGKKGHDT

Compound `CC(C)(C)[C@]1(O)CCN2C[C@H]3c4ccccc4CCc4cccc(c43)[C@@H]2C1` gave a Ki of 63 nM.

As usually defined, the Ki is a measure of affinity in units of concentration, obtained from inhibition or displacement.
